Data from patent US11655308B2, “HM-3 fusion protein and application thereof” (TASLY BIOPHARMACEUTICALS CO., LTD., priority 2017, dated 2023).
Like-named read-outs stand apart in the source and are kept apart here. No end group written: not given here.

What was measured:
type-II CIA mice = assay: Chronic inflammation model of type-II CIA in mice; format: in vivo, Balb/c mice; details: for ankle width / arthritis scoring / paw circumference / weight of mice / spleen weight: day 60; for ankle width: model G2 4.83±0.20; for arthritis scoring: model G2 11.5±1.7; for paw circumference: model G2 13.62; for weight of mice: model G2 19.5±1.6; for spleen weight: model G2 114.6±14.5
Method: Experimental method: Balb/c mice were taken and immunized for the first time. The concentration of type-II bovine collagen was 4 mg/mL. On the day of the experiment (day 0), complete Freund's adjuvant (CFA) and CII solution were mixed evenly in equal volume and emulsified. Excepting for the normal control group of Balb/c mice, mice in each group were sensitized by intracutaneous injection of 50 μL emulsifier at the end of tails. 21 days later, mice were re-immunized with the same dose of emulsifier at the end of tails, and incomplete Freund's adjuvant (IFA) served as an adjuvant at this time. Redness and swelling other arthritic symptoms appeared on toe joints of mice models approximately on the 29th day of the experiment, indicating successful modeling.
Animals in the modeling group on the 30th day of the experiment were randomly divided into:
There were 12 groups in total, and there were 8 pieces of mice in remaining each group excepting for 12 pieces in G1 (normal control group) and G2 (model group).
Measurement of mice weight: mice were weighed by an electronic balance every two days.
Measurement of sole thickness: the thickness of left, right and hind soles for each mouse was measured by a vernier caliper every two days.
Measurement of ankle joint width: the width of left and right ankle joints for each mouse was measured by vernier caliper every two days.
Arthritis index (AI) score: the severity of arthritis for each mouse was evaluated by a paw joint scoring method. 0: no redness and swelling; 1: redness and swelling of little toe joints; 2: redness and swelling of toe joints and toes; 3: redness and swelling of the portion below ankle joints; 4: redness and swelling of toe joints, toes and ankle joints. Scoring was performed once every two days until the end of the experiment.
Blood was collected from the orbit and serum was separated. After mice were killed by cervical dislocation, spleen and thymus were separated and weighed to calculate a spleen coefficient, and then the spleen and thymus were fixed in formalin stationary liquid.

[1] = system: mice splenic lymphocyte proliferation stimulated by ConA; format: cell-based; details: for inhibition rate / in vitro efficacy compared with TSL-4 control group: control: TSL-4 (P4 positive control, 12 μmol/L); for optimal (best) inhibition rate of splenic lymphocyte proliferation: ConA 5 μg/mL, 48 h, MTT, best of the tested concentrations
Method: Experimental method: mice orbit was by bloodletting to death, and immediately immersed in 75% ethanol for 5-10 min, and then the spleen was removed on a clean bench and placed in PBS. The spleen was placed on a sterile cell strainer (200 mesh) and ground with a syringe nozzle; during grinding process, PBS was added continuously; the slurry was collected and centrifuged (1000 rpm for 5 min), then cells were washed 3 times with Tris-ammonium chloride solution, and washed again with a medium, and then re-suspended in the medium. Finally, trypan blue living cell staining was performed on the cells, and the survival rate was more than 95%. The concentration of viable cells was adjusted to 2×10^6/mL. […] was added to each well of a 96-well plate, meanwhile, ConA (concanavalin to simulate splenocyte proliferation) and drugs were added to each well. Six duplicates were set in each group.
The 96-well plate was incubated for 48 h in a 5% CO2 incubator at 37° C. 5 mg/mL of MTT was added to the 96-well plate, 20 μL for each well, and then it was incubated continuously for 4 h in the incubator. The culture medium in the 96-well plate was discarded and 100 μL DMSO was added to each well and mixed gently. Absorbance was measured by a microplate reader at the wavelength of 570 nm and reference wavelength of 630 nm.
Proliferation inhibition rate (PI) was calculated according to formula:
[formula] wherein, Atest is the absorbance of dosing group, and Acontrol is the absorbance of negative control. Test results were expressed as mean±SD, and statistical T test was performed. *P<0.05 indicates significant difference, **P<0.01 indicates extremely significant difference. Based upon the results, the efficacy of the fusion protein against rheumatoid arthritis was screened.
In the P4 control group, TSL-4 fusion protein served as a control agent.

human macrophage U937 = assay: TNF-α production by LPS-induced human macrophage U937 (ELISA); format: cell-based; details: LPS 1 μg/mL, 48 h, negative group 77.6±19.6
Method: Experimental method: Human macrophage U937 was cultured in RPMI-1640 medium containing 10% fetal bovine serum and double antibodies in a constant temperature incubator at 37° C. under the condition of 5% CO2, and the medium was replaced every 2 days. U937 cells in the logarithmic phase were collected, resuspended and adjusted to the concentration of 5×10^5/mL. 100 μL of cells was added to each well of a 96-well plate overnight and induced with LPS (1 μg/mL) in the following day, where n=3. At the same time, the cells were treated with agents, and respectively divided into a positive control group adalimumab, an HM-3 polypeptide group, an mPEG-SC-HM-3 polypeptide group, an HM-3 fusion protein (TSL-1, TSL-2, TSL-3, TSL-4) group, and the specific dosing scheme was shown in Table 5.
48 h after the agents worked, culture medium was collected and centrifuged, and supernatant was taken to measure the content of TNF-α therein by ELISA. Test results were expressed as mean±SD, and statistical T test was performed. *P<0.05 indicates significant difference, **P<0.01 indicates extremely significant difference. Based upon the results, the efficacy of the HM-3 fusion protein against rheumatoid arthritis was screened.

[2] = system: transgenic blood vessel fluorescent zebrafish; assay: In vivo anti-angiogenesis in zebrafish (SIVs area); set-up: area of SIVs: unit not given here; details: for inhibiting effect on angiogenesis: 20 ng/tail; for inhibition rate of angiogenesis / area of SIVs: 24 h; for area of SIVs: normal control group 53193
Method: Experimental method: transgenic blood vessel fluorescent zebrafish was randomly selected and put into a six-well plate with 30 fish per well, and intravenously injected HM-3 polypeptide, TSL-1 fusion protein, TSL-2 fusion protein, TSL-3 fusion protein and TSL-4 fusion protein respectively in accordance with the dosage of 20 ng/tail and 66 ng/tail; the dosage was […] in Avastin positive control and the injection volume was 20 nL/tail; the zebrafish injected 20 nL/tail of buffer solution served as a solvent control group, and the zebrafish without any treatment served as a normal control group. 10 pieces of zebrafish were randomly selected from each group after processed for 24 h to observe the intestinal vessels of the transgenic zebrafish by a fluorescence microscope, as well as to take and maintain images. Image analysis was performed by Nikon MS-Elements D 3.10 to calculate the area (S) of SIVs (subintestinal vessel, SIV). The calculation formula of angiogenesis inhibition rate was as follows: Angiogenesis inhibition rate (%)=(1−S(Test sample group)/S(Normal control group))×100%
Statistical analysis was performed by variance analysis and Dunnett's T-test and the results were expressed as Mean±SD, where p<0.05 indicates a significant difference.

Rat chondrocyte = system: Rat chondrocyte
Method: Chondrocytes were cultured in a T75 flask for 3-4 days. When the degree of fusion reached 80%, the original culture medium was removed, and sterile PBS was added to clean the cells for 2-3 times, then a proper amount of digestive juice was added, and a fresh culture medium was added after the cells were detached. Cells were centrifuged to remove the cell sap containing the digestive juice, and a proper amount of fresh culture medium was added to be prepared into a cell suspension with appropriate concentration for cell subculture or cell experiments. Cell subculture began from generation P1 and ended till generation P5, and there were cryopreserved cells in each generation. Cells were used for the experiment when subcultured to P2-P5.
According to the inoculum size of 200 μL/well, the cell suspension with the density of 2.5*10^4/mL was inoculated onto a 96-well cell culture plate, and 3 groups were prepared in total, one for control group, and the other two groups were stimulated by hydrogen peroxide. A cell-free medium was prepared as a blank group. There were 4-5 sub-wells prepared in each group. The cell culture plate was put to an incubator for incubation for 24 hours. The culture medium was replaced to different experimental groups in the following day with a dose volume of 100 μl and incubated for 24 or 48 hours respectively.
At the end of incubation according to the experimental plan, 10 μL of 5 mg/ml MTT was added to each experimental group based upon 1/10 of the cell culture volume, so that the cells were incubated with MTT in the incubator for 4 hours. Afterwards, supernatant was carefully discarded, and 200 μL of dimethyl sulfoxide (DMSO) was added for mixing well, then the absorbance was measured on a microplate reader at a test wavelength of 570 nm. Calculating formula of relative cell activity ratio (%): a mean value of the absorbance (per well) in the experimental group/the absorbance in the control group multiplies by 100%. All experimental groups were expressed as mean±standard deviation (X±SD). The difference between each group was analyzed by Prism 7.0, and tested by one-way ANOVA. *P<0.05 means statistical difference, **P<0.01 means significant statistical difference, and […] means extremely significant statistical difference.
The experimental concentration of hydrogen peroxide ranged within 0.01, 0.1, 0.5, 1, 10 mM. In order to determine the H2O2 molding time and dosage, three molding time points at 24 hours, 48 hours and 72 hours were selected, and two detection wells were prepared in total for each dosage of hydrogen peroxide.

[3] = G3 Adalimumab 8 mg/kg SC 1 time/14 d, 1 time
[4] = G4 HM-3 1.6 mg/kg IV 2 times/d, 30 times

Adalimumab [reference compound]
ankle width (type-II CIA mice; [3]): 4.23±0.08 mm
arthritis scoring (type-II CIA mice; [3]): 7.6±0.9
paw circumference (type-II CIA mice; [3]): 11.42±0.20 mm
weight of mice (type-II CIA mice; [3]): 21.0 ± 1.5 g
spleen weight (type-II CIA mice; [3]): 94.6 ± 6.7 mg

HyFc-(GGGGS)3-HM-3 [TSL-16]
inhibition rate / in vitro efficacy compared with TSL-4 control group [1]: Significantly lower

HM-3-HyFc [TSL-14]
inhibition rate / in vitro efficacy compared with TSL-4 control group [1]: Significantly lower

IVRRADRAAVPGGGGRGD [HM-3, Ile-Val-Arg-Arg-Ala-Asp-Arg-Ala-Ala-Val-Pro-Gly-Gly-Gly-Gly-Arg-Gly-Asp]
TNF-α content in cell supernatant (human macrophage U937; high-dosage (Table 5: 18 μmol/L)): 58.9 ± 10.6 pg/mL
TNF-α content in cell supernatant (human macrophage U937; low-dosage (Table 5: 9 μmol/L)): 83.9 ± 20.4 pg/mL
ankle width (type-II CIA mice; [4]): 4.21±0.15 mm
arthritis scoring (type-II CIA mice; [4]): 7.8±1.4
paw circumference (type-II CIA mice; [4]): 11.41±0.53 mm
weight of mice (type-II CIA mice; [4]): 20.9 ± 1.5 g
spleen weight (type-II CIA mice; [4]): 94.2 ± 13.3 mg
therapeutic effect compared with group G3 (positive Adalimumab group) (type-II CIA mice; groups G4 (HM-3), G10 (TSL-4 12.5 mg/kg once for 5 days, 3 times)): slightly lower than that of the group G3
inhibiting effect on angiogenesis [2]: no inhibiting effect
inhibition rate of angiogenesis ([2]; 20 ng/tail iv): 2%
area of SIVs ([2]; 20 ng/tail iv): 52186
inhibition rate of angiogenesis ([2]; 66 ng/tail iv): 20%
area of SIVs ([2]; 66 ng/tail iv): 42492

HM-3-(GGGGS)3-mIgG4-Fc [TSL-2]
optimal (best) inhibition rate of splenic lymphocyte proliferation [1]: 34.1%
inhibiting effect on angiogenesis [2]: significant inhibitory effect
inhibition rate of angiogenesis ([2]; 20 ng/tail iv): 19%
area of SIVs ([2]; 20 ng/tail iv): 42828
inhibition rate of angiogenesis ([2]; 66 ng/tail iv): 39%
area of SIVs ([2]; 66 ng/tail iv): 32374

OO [H2O2, hydrogen peroxide]
MTT test value (Rat chondrocyte; 0.01 mM H2O2, 24 h, 0 mM 2.35): 2.51
MTT test value (Rat chondrocyte; 0.01 mM H2O2, 48 h, 0 mM 2.24): 2.1
MTT test value (Rat chondrocyte; 0.01 mM H2O2, 72 h, 0 mM 1.94): 1.99
MTT test value (Rat chondrocyte; 0.1 mM H2O2, 24 h, 0 mM 2.35): 2.29
MTT test value (Rat chondrocyte; 0.1 mM H2O2, 48 h, 0 mM 2.24): 2.08
MTT test value (Rat chondrocyte; 0.1 mM H2O2, 72 h, 0 mM 1.94): 1.92
MTT test value (Rat chondrocyte; 1 mM H2O2, 24 h, 0 mM 2.35): 1.28
MTT test value (Rat chondrocyte; 1 mM H2O2, 48 h, 0 mM 2.24): 1.47
MTT test value (Rat chondrocyte; 1 mM H2O2, 72 h, 0 mM 1.94): 0.81
MTT test value (Rat chondrocyte; 10 mM H2O2, 24 h, 0 mM 2.35): 0.06
MTT test value (Rat chondrocyte; 10 mM H2O2, 48 h, 0 mM 2.24): 0.56
MTT test value (Rat chondrocyte; 10 mM H2O2, 72 h, 0 mM 1.94): −0.07

B1: HM-3-(GGGGS)3-IgG2-Fc (protein)
chain: IVRRADRAAVPGGGGRGDGGGGSGGGGSGGGGSERKCCVECPPCPAPPVAGPSVFLFPPKPKDTLMISRTPEVTCVVVDVSHEDPEVQFNWYVDGVEVHNAKTKPREEQFNSTFRVVSVLTVVHQDWLNGKEYKCKVSNKGLPAPIEKTISKTKGQPREPQVYTLPPSREEMTKNQVSLTCLVKGFYPSDISVEWESNGQPENNYKTTPPMLDSDGSFFLYSKLTVDKSRWQQGNVFSCSVMHEALHNHYTQKSLSLSPGK
optimal (best) inhibition rate of splenic lymphocyte proliferation [1]: 39.6%
inhibiting effect on angiogenesis [2]: significant inhibitory effect
inhibition rate of angiogenesis ([2]; 20 ng/tail iv): 25%
area of SIVs ([2]; 20 ng/tail iv): 39929
inhibition rate of angiogenesis ([2]; 66 ng/tail iv): 30%
area of SIVs ([2]; 66 ng/tail iv): 37022
